Experimental data from ChEMBL document CHEMBL1131956, “Nucleomimetic strategy for the inhibition of HIV-1 nucleocapsid protein NCp7 activities” (1999).

Assays:
[1] = target: Human immunodeficiency virus type 1 reverse transcriptase (Human immunodeficiency virus 1) (UniProt Q72547); assay: Reverse transcriptase activity using an HIV-1 infected cell line at 10 micro M concentration
[2] = system: Human immunodeficiency virus 1; assay: Affinity for HIV-1 Nucleocapsid Protein (12-53)NCp7 was determined; format: functional

Structure (SMILES): Cc1cn(C2CC(CC(=O)NC3OC(n4cnc5c(O)nc(N)nc54)CC3O)C(CO)O2)c(=O)[nH]c1=O (configuration not stated)
- inhibition [1]: 20%

Structure (SMILES): Cc1cn(C2CC(O)C(NC(=O)CC3CC(n4cnc5c(O)nc(N)nc54)OC3CO)O2)c(=O)[nH]c1=O (configuration not stated)
- Affinity [2]: 9 M⁻¹
